Data on three compounds can be found in ChEMBL document CHEMBL1130718, “(2Z,4E)-5-(5,6-dichloro-2-indolyl)-2-methoxy-N-(1,2,2,6,6- pentamethylpiperidin-4-yl)-2,4-pentadienamide, a novel, potent and selective inhibitor of the osteoclast V-ATPase” (Bioorg Med Chem Lett, 1998).

Assay [1] can be described thus: Compound selectivity was assessed using vacuolar type proton ATPase from human kidney cortex (hK).
Assay [2] is described as follows: Compound selectivity was assessed using vacuolar type proton ATPase from human kidney cortex(hK).
Assay [3] is filed under the species Homo sapiens. The assay can be described thus: Ability to inhibit bone resorption in human osteoclast obtained from giant cell tumors of bone. Type of assay: functional.
Assay [4] is filed under the species Homo sapiens. Put plainly: In vitro human osteoclast activity for bone resorption was assessed by ELISA assay. The class given is functional. Background: In an ELISA, binding on a coated surface is turned into a signal by an enzyme label.
Assay [5] is described as follows: Compound selectivity was assessed using vacuolar type proton ATPase from chicken adrenal glands (cAG). Type of assay: tissue-based, Adrenal gland.

For orientation: IC50 means the point on the concentration scale where inhibition reaches its midpoint. Compound `CO/C(=C\C=C/c1cc2cc(Cl)c(Cl)cc2[nH]1)C(=O)NC1CC(C)(C)N(C)C(C)(C)C1` gave an IC50 in assay [1] of 2.5 µM.

`CO/C(=C/C=C/c1cc2cc(Cl)c(Cl)cc2[nH]1)C(=O)NC1CC(C)(C)N(C)C(C)(C)C1` showed a concentration for half-maximal inhibition (IC50) in assay [2] of 6.33 µM.

For the compound `CO/C(=C\C=C\c1cc2cc(Cl)c(Cl)cc2[nH]1)C(=O)NC1CC(C)(C)N(C)C(C)(C)C1`, the IC50 in assay [3] is 0.0135 µM; in assay [4], 0.0034 µM; in assay [5] it was 0.125 µM; in assay [1] it was 0.158 µM.
